# Reference: patent publication US10870647B2, “Imidazopyridine derivative, method for preparing same, and pharmaceutical composition containing same as active ingredient for preventing or treating cancer” (DAEGU-GYEONGBUK MEDICAL INNOVATION FOUNDATION, priority 2016, dated 2020)
# What was measured:
# Test in all cases: Kinase selectivity, scanMAX Kinase assay panel (DiscoverX), % control at 1 uM
# Assay type in all cases: binding
# [1] = target: T1, scanMAX Kinase assay panel (Homo sapiens, UniProt Q8IYT8); details: ULK2; 1 uM; read-out: Percent Control (%)
# T1 construct: purchased DiscoverX
# T1 sequence (Q8IYT8 1-1036): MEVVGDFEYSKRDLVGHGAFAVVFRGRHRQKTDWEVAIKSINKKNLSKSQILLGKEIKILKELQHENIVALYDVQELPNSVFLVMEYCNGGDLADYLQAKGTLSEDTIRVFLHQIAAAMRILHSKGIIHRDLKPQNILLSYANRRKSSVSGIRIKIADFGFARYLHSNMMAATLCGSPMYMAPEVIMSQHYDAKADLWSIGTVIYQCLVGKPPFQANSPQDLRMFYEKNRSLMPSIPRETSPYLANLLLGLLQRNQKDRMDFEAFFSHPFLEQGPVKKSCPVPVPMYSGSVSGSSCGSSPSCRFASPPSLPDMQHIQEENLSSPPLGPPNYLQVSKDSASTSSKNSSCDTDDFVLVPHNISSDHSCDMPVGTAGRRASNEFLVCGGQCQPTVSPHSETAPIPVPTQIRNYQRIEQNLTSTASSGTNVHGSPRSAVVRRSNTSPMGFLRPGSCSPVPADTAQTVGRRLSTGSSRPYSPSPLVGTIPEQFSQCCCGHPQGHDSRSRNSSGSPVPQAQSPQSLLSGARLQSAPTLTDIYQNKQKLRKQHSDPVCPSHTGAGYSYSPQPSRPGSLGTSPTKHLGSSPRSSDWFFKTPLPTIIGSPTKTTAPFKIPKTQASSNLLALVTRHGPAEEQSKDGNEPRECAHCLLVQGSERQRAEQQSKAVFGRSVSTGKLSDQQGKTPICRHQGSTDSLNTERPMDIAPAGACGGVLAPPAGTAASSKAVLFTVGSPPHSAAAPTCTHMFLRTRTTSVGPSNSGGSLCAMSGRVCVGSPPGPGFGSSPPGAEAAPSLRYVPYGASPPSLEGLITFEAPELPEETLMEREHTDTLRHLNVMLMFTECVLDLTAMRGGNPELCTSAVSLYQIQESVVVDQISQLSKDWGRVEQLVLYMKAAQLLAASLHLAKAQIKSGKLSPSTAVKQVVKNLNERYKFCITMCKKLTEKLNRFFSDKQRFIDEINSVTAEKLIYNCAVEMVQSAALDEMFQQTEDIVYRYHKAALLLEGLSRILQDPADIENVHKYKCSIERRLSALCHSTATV
# Procedure, shortened: (§1)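 Binding across the scanMAX kinase panel was tested at 1 uM compound. % control = (compound − positive control)/(negative control − positive control) × 100; below 35 counted as active.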
# [2] = target: T2, scanMAX Kinase assay panel (Homo sapiens, UniProt Q6ZWH5); details: NEK10; 1 uM; read-out: Percent Control (%)
# T2 construct: purchased DiscoverX
# T2 sequence (Q6ZWH5 1-1172): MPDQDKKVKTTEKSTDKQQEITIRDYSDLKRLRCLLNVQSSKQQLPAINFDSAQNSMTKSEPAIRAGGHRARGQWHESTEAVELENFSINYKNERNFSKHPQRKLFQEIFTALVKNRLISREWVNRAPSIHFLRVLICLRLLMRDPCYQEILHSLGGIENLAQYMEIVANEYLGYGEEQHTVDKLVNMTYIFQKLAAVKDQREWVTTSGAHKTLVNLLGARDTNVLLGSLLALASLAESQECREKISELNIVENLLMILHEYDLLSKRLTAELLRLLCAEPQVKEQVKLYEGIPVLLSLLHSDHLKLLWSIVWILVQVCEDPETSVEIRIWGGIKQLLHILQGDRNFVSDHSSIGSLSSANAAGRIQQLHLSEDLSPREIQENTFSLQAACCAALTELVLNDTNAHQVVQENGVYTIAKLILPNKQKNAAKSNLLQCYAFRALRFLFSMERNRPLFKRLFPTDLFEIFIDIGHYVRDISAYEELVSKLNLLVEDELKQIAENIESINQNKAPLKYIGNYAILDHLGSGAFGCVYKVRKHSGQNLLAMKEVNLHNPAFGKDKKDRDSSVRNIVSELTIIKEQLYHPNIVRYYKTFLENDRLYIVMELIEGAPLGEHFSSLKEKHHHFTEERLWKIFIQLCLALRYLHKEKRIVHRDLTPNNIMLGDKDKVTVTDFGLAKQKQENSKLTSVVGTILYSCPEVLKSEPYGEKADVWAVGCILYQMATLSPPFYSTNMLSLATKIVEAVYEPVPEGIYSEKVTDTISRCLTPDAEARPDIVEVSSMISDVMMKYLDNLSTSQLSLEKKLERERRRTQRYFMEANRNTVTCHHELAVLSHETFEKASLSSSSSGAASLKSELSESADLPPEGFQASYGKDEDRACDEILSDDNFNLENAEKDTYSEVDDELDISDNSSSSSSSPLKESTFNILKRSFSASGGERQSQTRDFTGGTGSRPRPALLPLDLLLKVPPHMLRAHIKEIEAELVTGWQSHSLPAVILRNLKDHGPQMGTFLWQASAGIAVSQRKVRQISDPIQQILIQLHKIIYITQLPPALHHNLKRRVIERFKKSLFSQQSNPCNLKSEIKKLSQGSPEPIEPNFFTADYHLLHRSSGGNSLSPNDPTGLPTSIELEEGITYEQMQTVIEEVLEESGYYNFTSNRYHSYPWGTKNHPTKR
# Procedure, shortened: as §1
# [3] = target: T3, scanMAX Kinase assay panel (Homo sapiens, UniProt Q00526); details: CDK3; 1 uM; read-out: Percent Control (%)
# T3 construct: purchased DiscoverX
# Procedure, shortened: as §1
# [4] = target: T4, scanMAX Kinase assay panel (Homo sapiens, UniProt P00533); details: EGFR; 1 uM; read-out: Percent Control (%)
# T4 construct: purchased DiscoverX
# Procedure, shortened: as §1
# [5] = target: T5, scanMAX Kinase assay panel (Homo sapiens, UniProt P15056, V600E); details: BRAF (V600E); 1 uM; read-out: Percent Control (%)
# T5 construct: purchased DiscoverX
# Procedure, shortened: as §1
# T5 sequence (P15056 whole entry V600E): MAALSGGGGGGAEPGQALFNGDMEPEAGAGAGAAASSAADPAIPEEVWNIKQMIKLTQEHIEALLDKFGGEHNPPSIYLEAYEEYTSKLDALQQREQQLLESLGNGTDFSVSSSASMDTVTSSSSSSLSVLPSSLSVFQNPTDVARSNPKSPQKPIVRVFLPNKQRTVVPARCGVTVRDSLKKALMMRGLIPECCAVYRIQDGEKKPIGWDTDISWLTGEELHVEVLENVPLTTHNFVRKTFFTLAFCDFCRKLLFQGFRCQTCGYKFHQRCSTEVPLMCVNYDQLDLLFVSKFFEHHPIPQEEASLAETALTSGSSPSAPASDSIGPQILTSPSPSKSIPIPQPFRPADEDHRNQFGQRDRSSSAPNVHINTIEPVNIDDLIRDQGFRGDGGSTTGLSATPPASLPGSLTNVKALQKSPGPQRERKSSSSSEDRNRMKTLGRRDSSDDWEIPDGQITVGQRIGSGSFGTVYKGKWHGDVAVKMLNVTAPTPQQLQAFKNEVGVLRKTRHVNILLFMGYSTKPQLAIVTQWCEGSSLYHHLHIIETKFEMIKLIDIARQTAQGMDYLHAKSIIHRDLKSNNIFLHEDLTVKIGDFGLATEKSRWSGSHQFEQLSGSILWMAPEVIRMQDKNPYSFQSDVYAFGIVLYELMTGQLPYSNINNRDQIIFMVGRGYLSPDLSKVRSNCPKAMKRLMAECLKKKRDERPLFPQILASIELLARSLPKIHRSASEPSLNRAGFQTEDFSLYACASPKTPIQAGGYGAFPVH
# T3 sequence (Q00526 whole entry): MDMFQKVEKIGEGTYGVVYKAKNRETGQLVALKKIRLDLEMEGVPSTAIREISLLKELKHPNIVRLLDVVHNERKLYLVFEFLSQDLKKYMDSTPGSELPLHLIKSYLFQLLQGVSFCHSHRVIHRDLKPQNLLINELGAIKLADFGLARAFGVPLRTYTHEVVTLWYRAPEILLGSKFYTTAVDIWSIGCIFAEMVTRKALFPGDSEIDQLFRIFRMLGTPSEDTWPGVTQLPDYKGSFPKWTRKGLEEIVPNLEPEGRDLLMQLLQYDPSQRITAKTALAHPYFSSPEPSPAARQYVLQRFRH
# T4 sequence (P00533 25-1210): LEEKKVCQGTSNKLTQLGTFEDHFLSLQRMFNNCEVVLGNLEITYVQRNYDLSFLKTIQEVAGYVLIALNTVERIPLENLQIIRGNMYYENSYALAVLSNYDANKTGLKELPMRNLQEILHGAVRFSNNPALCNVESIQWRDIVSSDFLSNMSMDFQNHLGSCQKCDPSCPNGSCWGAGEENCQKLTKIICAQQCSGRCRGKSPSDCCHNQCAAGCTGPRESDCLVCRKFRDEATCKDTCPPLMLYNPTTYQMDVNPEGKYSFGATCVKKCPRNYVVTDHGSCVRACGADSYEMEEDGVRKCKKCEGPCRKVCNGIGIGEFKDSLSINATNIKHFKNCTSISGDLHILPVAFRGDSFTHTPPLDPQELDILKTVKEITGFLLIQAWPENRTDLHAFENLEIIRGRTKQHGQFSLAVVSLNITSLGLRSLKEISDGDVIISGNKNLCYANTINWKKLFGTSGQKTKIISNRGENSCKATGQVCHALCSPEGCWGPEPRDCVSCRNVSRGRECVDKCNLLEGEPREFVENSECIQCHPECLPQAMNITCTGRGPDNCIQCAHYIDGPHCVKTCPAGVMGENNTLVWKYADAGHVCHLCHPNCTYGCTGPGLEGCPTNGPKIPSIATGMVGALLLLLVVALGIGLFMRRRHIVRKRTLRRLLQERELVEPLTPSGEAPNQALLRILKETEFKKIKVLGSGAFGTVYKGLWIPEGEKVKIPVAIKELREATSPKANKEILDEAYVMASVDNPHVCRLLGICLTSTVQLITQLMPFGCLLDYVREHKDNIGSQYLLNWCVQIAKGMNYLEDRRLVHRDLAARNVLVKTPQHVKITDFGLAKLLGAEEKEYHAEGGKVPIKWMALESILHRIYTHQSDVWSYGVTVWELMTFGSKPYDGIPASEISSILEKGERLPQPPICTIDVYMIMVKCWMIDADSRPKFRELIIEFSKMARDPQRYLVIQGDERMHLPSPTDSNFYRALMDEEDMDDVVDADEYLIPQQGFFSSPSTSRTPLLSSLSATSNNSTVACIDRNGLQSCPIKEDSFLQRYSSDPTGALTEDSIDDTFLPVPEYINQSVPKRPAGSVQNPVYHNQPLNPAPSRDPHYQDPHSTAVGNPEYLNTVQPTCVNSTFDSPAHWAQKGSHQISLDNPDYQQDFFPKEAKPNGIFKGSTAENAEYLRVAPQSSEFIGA
structure (smiles),measurement,setting,value
"Cc1ccc(C(=O)Nc2ccc(CN3CCN(C)CC3)c(C(F)(F)F)c2)cc1C#Cc1cnc2c(Nc3cnn(C)c3)cccn12 [Example 1, 4-methyl-3-((8-((1-methyl-1H-pyrazol-4-yl)amino)imidazo[1,2-a]pyridin-3-yl)ethynyl)-N-(4-((4-methylpiperazin-1-yl)methyl)-3-(trifluoromethyl)phenyl)benzamide]",remaining binding at 1 µM,[1],62%
same,remaining binding at 1 µM,[2],100%
same,remaining binding at 1 µM,[3],62%
same,remaining binding at 1 µM,[4],3%
same,remaining binding at 1 µM,[5],5%
"Cc1cn(-c2cc(NC(=O)c3ccc(C)c(C#Cc4cnc5c(Nc6cnn(C)c6)cccn45)c3)cc(C(F)(F)F)c2)cn1 [Example 12, 4-methyl-N-(3-(4-methyl-1H-imidazol-1-yl)-5-(trifluoromethyl)phenyl)-3-((8-((1-methyl-1H-pyrazol-4-yl)amino)imidazo[1,2-a]pyridin-3-yl)ethynyl)benzamide]",remaining binding at 1 µM,[1],100%
same,remaining binding at 1 µM,[2],100%
same,remaining binding at 1 µM,[3],89%
same,remaining binding at 1 µM,[4],28%
same,remaining binding at 1 µM,[5],56%
Cc1ccc(NC(=O)C2(C(=O)Nc3ccc(F)cc3)CC2)cc1C#Cc1cnc2c(Nc3cnn(C(C)C)c3)cccn12 [Example 78],remaining binding at 1 µM,[1],90%
same,remaining binding at 1 µM,[2],100%
same,remaining binding at 1 µM,[3],86%
same,remaining binding at 1 µM,[4],85%
same,remaining binding at 1 µM,[5],100%
